Measurements published in US20240277847A1, “BENCH-STABLE TRIAZENE COMPOSITIONS FOR PROTEIN MODIFICATION” (ARIZONA BOARD OF REGENTS ON BEHALF OF THE UNIVERSITY OF …, priority 2021, published 2024).

Test: pH of triazene water solution before, during and after 370 nm irradiation
Format: physicochemical
Conditions: 0.5 mM triazene in water, 370 nm light; for pH change during irradiation: 1 minute
Procedure: Referring to FIG. 5, 0.5 mM of triazenes 1a, 1g, and 1i were incubated in a water solution and the relative pH was measured before, during, and after irradiation with 370 nm light. […] Furthermore, the data notes that after irradiation has ceased, there is an immediate drop in pH consistent with the reversion of the scaffold to the trans-species.

Row | Compound | pH change during irradiation | relative change in pH versus 1g
1 | COc1ccc(N=Nc2ccc(O)cc2O)cc1 [2i] | notable increases of pH | –
2 | COc1ccc(N=NN2CCCCC2)cc1 [1i] | – | over double that of 1g
3 | O=[N+]([O-])c1ccc(N=NN2CCCCC2)cc1 [1a] | did not elicit notable pH change | –
4 | c1ccc(N=NN2CCCCC2)cc1 [1g] | notable increases of pH | –
